Active and inactive are the calls of the source. The calls are words filed in the database; no cut-off is given here.

Data set [1] has as its target Programmed cell death protein 1/Programmed cell death 1 ligand 1 (Homo sapiens, UniProt Q9NZQ7). Description: Inhibition of interaction of Fc(IgG1)-Avi)-(Biotin)-fused human PDL1 (19 to 239 residues)/Eu-labeled human PD-1 (25 to 167 residues) expressed in HEK293 cells pretreated with PDL1 for 15 mins followed by PD-1 addition and measured after 90 mins by TR-FRET assay. Type of data set: cell-based.

In data set [2] the target is T1, Programmed cell death 1 ligand 1 (Homo sapiens, UniProt Q9NZQ7). Description: Inhibition of human recombinant PDL1 expressed in HEK293 cells assessed as restoration of Jurkat T cell activity by measuring increase in IFNgamma secretion at 1 uM incubated for 24 hrs by ELISA. It is filed as cell-based. Details: Activity: scale not given: the % may be the effect or the level left.

For the next data set, the system named is NCM460. Description: Cytotoxicity against human NCM460 cells assessed as cell viability at 0.625 to 10 uM incubated for 24 hrs by CCK8 assay. It is filed as toxicity, cell-based. The conditions noted are these: ncm460, 24 h, dose 0.625-10 µM.
The target in data set [3] is T1, Programmed cell death 1 ligand 1. The experiment in a line: Binding affinity to RED-NHS dye labeled human PDL1 incubated for 10 mins away from light by microscale thermophoresis analysis.
In data set [4] the target is Programmed cell death 1 ligand 1 (Mus musculus, UniProt Q9EP73). The experiment in a line: Binding affinity to RED-NHS dye labeled mouse PDL1 incubated for 10 mins away from light by microscale thermophoresis analysis.
Data set [5] has as its target T1, Programmed cell death 1 ligand 1. The experiment in a line: Inhibition of PDL1 (unknown origin) assessed as induction of PDL1 dimerization at protein to compound concentration ratio of 1:2 incubated for overnight by SEC analysis.
The target is the same in data set [6]. The experiment in a line: Inhibition of PDL1 in human RKO cells assessed as […] PDL1 internalization into cytosol at 2 uM by immunofluorescence assay. It is filed as subcellular. The conditions noted are these: time 2-6 hrs, TDE = time-dependent effect.
For data set [7] the target is unchanged. The experiment in a line: Inhibition of PDL1 in human RKO cells assessed as […] PDL1 internalization into cytosol incubated for 12 hrs by immunofluorescence assay. It is filed as subcellular. The following applies: dose 0.5-2 µM.
In another data set the test system is L02. Description: Cytotoxicity against human L02 cells assessed as cell viability at 0.625 to 10 uM incubated for 24 hrs by CCK8 assay. Type of data set: toxicity, cell-based. The following applies: l02, 24 h, dose 0.625-10 µM.
Data set [8] addresses T1, Programmed cell death 1 ligand 1. The experiment in a line: Inhibition of human recombinant PDL1 expressed in HEK293 cells assessed as restoration of Jurkat T cell activity by measuring increase in IL-2 secretion incubated for 24 hrs by ELISA. The following applies: dose 0.3125-2.5 µM. Type of data set: cell-based.
Data set [9] has the same target. The experiment in a line: Inhibition of human recombinant PDL1 expressed in HEK293 cells assessed as restoration of Jurkat T cell activity by measuring increase in IL-2 secretion at 2.5 uM incubated for 24 hrs in presence of PD-L1v242 by ELISA. Type of data set: cell-based.
In another data set the test system is MDA-MB-231. The experiment in a line: Antitumor activity against human MDA-MB-231 cells cocultured with CD3/CD28/CD2 T cell activator stimulated human PBMC cells assessed as increase in tumor cell viability incubated for 12 hrs by LDH assay. The conditions noted are these: MDA-MB-231, 12 h.
In data set [10] the target is T1, Programmed cell death 1 ligand 1. The experiment in a line: Inhibition of PDL1 in human MDA-MB-231 cells assessed as induction of PDL1 degradation at 1 to 5 uM incubated for 24 hrs by western blot analysis. Type of data set: cell-based. The conditions noted are these: dose 1-5 µM.
Data set [11] can be described thus: AUC(0 to t) in Sprague-Dawley rat at 5 mg/kg, iv by LC-MS/MS analysis. Type of data set: ADME, organism-based. Further details: dose 5 mg/kg, route iv. The conditions noted are these: in vivo.
The nature of data set [12]: Cmax in Sprague-Dawley rat at 5 mg/kg, iv by LC-MS/MS analysis. The following applies: in vivo. Type of data set: ADME, organism-based. Details: dose 5 mg/kg, route iv.
The nature of data set [13]: Tmax in Sprague-Dawley rat at 5 mg/kg, iv by LC-MS/MS analysis. Type of data set: ADME, organism-based. The following applies: in vivo.
Data set [14] can be described thus: Half life in Sprague-Dawley rat at 5 mg/kg, iv by LC-MS/MS analysis. It is filed as ADME, organism-based. The conditions noted are these: in vivo.
Data set [15] in a line: AUC(0 to t) in Sprague-Dawley rat at 25 mg/kg, po by LC-MS/MS analysis. The following applies: in vivo. Details: dose 25 mg/kg, route po. It is filed as ADME, organism-based.
The nature of data set [16]: Cmax in Sprague-Dawley rat at 25 mg/kg, po by LC-MS/MS analysis. Type of data set: ADME, organism-based. Further details: dose 25 mg/kg, route po. The conditions noted are these: in vivo.
The nature of data set [17]: Tmax in Sprague-Dawley rat at 25 mg/kg, po by LC-MS/MS analysis. It is filed as ADME, organism-based. The conditions noted are these: in vivo.
Data set [18] in a line: Half life in Sprague-Dawley rat at 25 mg/kg, po by LC-MS/MS analysis. Type of data set: ADME, organism-based. The following applies: in vivo.
A short description of data set [19]: Oral bioavailability in Sprague-Dawley rat at 25 mg/kg by LC-MS/MS analysis. It is filed as ADME, organism-based. The conditions noted are these: in vivo.
Data set [20] concerns CT26. The experiment in a line: Antitumor activity against mouse CT26 cells xenografted in BALB/c mouse assessed as inhibition of tumor growth administered ip qd for 2 weeks. It is filed as functional, organism-based. The conditions noted are these: dose 10-20 mg/kg.
The nature of data set [21]: Toxicity against BALB/c mouse xenografted with mouse CT26 cells assessed as body weight loss at 10 to 20 mg/kg, ip qd for 2 weeks. The conditions noted are these: in vivo, 336 h, dose 10-20 mg/kg. It is filed as organism-based.
Data set [22] is described as follows: Toxicity against BALB/c mouse xenografted with mouse CT26 cells assessed as mortality at 10 to 20 mg/kg, ip qd for 2 weeks. Type of data set: organism-based. The conditions noted are these: in vivo, 336 h, dose 10-20 mg/kg.
In data set [23] the test system is CT26. Description: Antitumor activity against mouse CT26 cells xenografted in BALB/c mouse assessed as decrease in tumor weight at 10 mg/kg, ip qd for 2 weeks. It is filed as functional. The following applies: CT26, 336 h.
Data set [24] concerns CT26. Description: Antitumor activity against mouse CT26 cells xenografted in BALB/c mouse assessed as decrease in tumor weight at 20 mg/kg, ip qd for 2 weeks. It is filed as functional. The following applies: CT26, 336 h.
In data set [25] the test system is CT26. The experiment in a line: Antitumor immunity against mouse CT26 cells xenografted in BALB/c mouse assessed as increase in infiltration of CD8+ cells in tumor administered ip qd for 2 weeks by immunohistochemical staining based analysis. It is filed as functional, organism-based. The following applies: dose 10-20 mg/kg.
Data set [26] concerns CT26. The experiment in a line: Antitumor activity against mouse CT26 cells xenografted in BALB/c mouse assessed as tumor shrinkage and reduction of tumor growth at 20 mg/kg, ip qd for 2 weeks by Hematoxylin-eosin staining based analysis. It is filed as functional, organism-based.
Data set [27] concerns CT26. The experiment in a line: In vivo inhibition of PDL1 in BALB/c mouse xenografted with mouse CT26 cells assessed as induction of PDL1 degradation by measuring decrease in PDL1 protein expression in tumor at 10 to 20 mg/kg, ip qd for 2 weeks by immunohistochemical staining based analysis. Type of data set: functional, organism-based. The conditions noted are these: dose 10-20 mg/kg.

Sequence of Programmed cell death protein 1/Programmed cell death 1 ligand 1 (Q15116 whole entry, the tested form may be a part): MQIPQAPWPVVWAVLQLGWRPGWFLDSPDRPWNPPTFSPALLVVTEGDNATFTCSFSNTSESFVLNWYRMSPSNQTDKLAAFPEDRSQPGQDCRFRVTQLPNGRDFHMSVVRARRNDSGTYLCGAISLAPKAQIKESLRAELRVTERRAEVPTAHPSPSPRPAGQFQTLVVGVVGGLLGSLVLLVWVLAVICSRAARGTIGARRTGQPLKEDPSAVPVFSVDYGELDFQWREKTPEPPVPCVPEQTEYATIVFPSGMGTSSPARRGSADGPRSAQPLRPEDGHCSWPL
Sequence of Programmed cell death protein 1/Programmed cell death 1 ligand 1 (Q9NZQ7 whole entry, the tested form may be a part): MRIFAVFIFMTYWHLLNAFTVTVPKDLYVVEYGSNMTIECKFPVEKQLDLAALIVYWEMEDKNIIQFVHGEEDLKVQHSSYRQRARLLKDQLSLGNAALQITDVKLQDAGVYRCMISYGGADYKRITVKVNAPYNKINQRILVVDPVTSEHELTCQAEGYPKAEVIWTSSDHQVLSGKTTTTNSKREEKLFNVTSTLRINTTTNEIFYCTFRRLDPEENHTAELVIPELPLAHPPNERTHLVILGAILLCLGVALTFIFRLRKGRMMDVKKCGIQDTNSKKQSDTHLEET
T1 sequence (Q9NZQ7 whole entry): as the sequence (Q9NZQ7 whole entry, the tested form may be a part) above
Sequence of Programmed cell death 1 ligand 1 (Mus musculus, UniProt Q9EP73) (Q9EP73 whole entry): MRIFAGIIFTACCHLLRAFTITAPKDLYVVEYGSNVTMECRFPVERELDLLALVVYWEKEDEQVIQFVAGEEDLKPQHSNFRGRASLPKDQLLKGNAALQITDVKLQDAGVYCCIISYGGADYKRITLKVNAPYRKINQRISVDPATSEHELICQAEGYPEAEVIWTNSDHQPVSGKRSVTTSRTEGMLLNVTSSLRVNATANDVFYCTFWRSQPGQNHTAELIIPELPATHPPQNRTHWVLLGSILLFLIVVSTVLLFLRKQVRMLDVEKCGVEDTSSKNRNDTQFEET

Turning to `Cc1c(-c2cccc(-c3nnc(Nc4cccc(CNCCO)c4)o3)c2)cccc1-c1nnc(Nc2cccc(CN3CC[C@@H](O)C3)c2)o1`, the IC50 in data set [1] was 51.6 nM.
On the same count and under the same terms, next, `Cc1c(-c2nnc(Nc3cccc(CNCCO)c3)o2)cccc1-c1cccc(-c2nnc(Nc3cccc(CNCCO)c3)o2)c1C`: 78.4 nM.
With `CC(=O)NCCNCc1ccc(NC(=O)c2cccc(-c3cccc(-c4nnc(Nc5cccc(CNCCO)c5)o4)c3C)c2C)nc1`, the IC50 in data set [1] was found to be 42 nM.
Take `COc1nc(O[C@H]2CCc3c(-c4cccc(C(=O)Nc5ccc(CNCCNC(C)=O)cn5)c4Cl)cccc32)c(Cl)cc1CNCCNC(C)=O`: the IC50 in data set [1] was 4.1 nM. For the same compound, the inhibition entry in data set [2] was “Active”.
On to `COc1nc(NC(=O)c2cccc(-c3cccc4c3CC[C@@H]4Oc3nc(OC)c(CNCCNC(C)=O)cc3Cl)c2Cl)ccc1CNCCNC(C)=O`, for which the IC50 in data set [1] came out at 22.1 nM.
Regarding `CC(=O)NCCNCc1cccc(Nc2nnc(-c3cccc(-c4cccc(-c5nnc(Nc6cccc(CNCCNC(C)=O)c6)o5)c4C)c3C)o2)c1`, the IC50 in [1] came to 58.8 nM.
Same read-out and setting: next, `COc1nc(O[C@H]2CCc3c(-c4cccc(C(=O)Nc5ccc(CN6CCC7(CC6)CNC(=O)C7)cn5)c4Cl)cccc32)c(Cl)cc1CN1CCC2(CC1)CNC(=O)C2`: 17.2 nM.
Consider `Cc1c(-c2nnc(Nc3cccc(CN4CC[C@@H](O)C4)c3)o2)cccc1-c1cccc(-c2nnc(Nc3cccc(CN4CC[C@@H](O)C4)c3)o2)c1C`, for which the IC50 in [1] is 30.9 nM. In addition, the inhibition entry in data set [2] was “Active”.
For `COc1nc(O[C@H]2CCc3c(-c4cccc(C(=O)Nc5ccc(CNC[C@@H]6CCC(=O)N6)cn5)c4Cl)cccc32)c(Cl)cc1CNC[C@@H]1CCC(=O)N1`, the Activity result with NCM460 was “Non-Toxic”; in data set [2], 80%; in the data set with L02, “Non-Toxic”; with CT26 [20], “Dose-Dependent Effect”; in data set [21] it was “Non-Toxic”; in data set [22] it was “Non-Toxic”. In addition, the Activity entry with CT26 [25] is “Dose-Dependent Effect”. Besides, the IC50 in data set [1] amounted to 1.8 nM. Besides, the Kd in [3] turned out to be 24 nM; in [4], 790 nM. In addition, the inhibition result (in data set [5]; in data set [9]; in data set [10]; in the data set with CT26 [27]) was “Active” in each case. The inhibition result is “Tde” in data set [6], “Dose-Dependent Effect” in [7] and “Dose-Dependent Effect” in [8]. For the same compound, the EC50 in the data set on MDA-MB-231 is around 800 nM. Also, the AUC(0-t) came to 890 ng·h/mL in [11] and 73.1 ng·h/mL in data set [15]. The Cmax in data set [12] amounted to 2370 ng/mL; in data set [16] it was 22.6 ng/mL. Moreover, the Tmax in [13] amounted to 1.8 min; in data set [17], 0.3 h. Further, the half-life is 5.3 h in data set [14] and 5.8 h in [18]. Also, the bioavailability in data set [19] came to 1.6%. In addition, the inhibition in vivo at 10 mg/kg with CT26 [23] stood at 37%. Moreover, in the data set on CT26 [24], the inhibition in vivo at 20 mg/kg was found to be 51%. In the data set on CT26 [26], the result was Active.
For `Cc1c(C(=O)Nc2ccc(CNCCO)cn2)cccc1-c1cccc(-c2nnc(Nc3cccc(CNCCO)c3)o2)c1C`, the IC50 in data set [1] came to 14.5 nM.
For the compound `COc1nc(O[C@H]2CCc3c(-c4cccc(C(=O)Nc5ccc(CNCCO)c(F)n5)c4Cl)cccc32)c(Cl)cc1CNCCO`, the IC50 in data set [1] stood at 16.1 nM.
Still for that read-out and setting: the same measure for `Cc1c(-c2ccc(CNCCO)cc2)cccc1-c1cccc(-c2nnc(Nc3cccc(CNCCO)c3)o2)c1C`: 37.2 nM; for `Cc1c(-c2ccccc2)cccc1-c1nnc(Nc2cccc(CNCCO)c2)o1`: 27.8 nM; for `COc1nc(O[C@H]2CCc3c(-c4cccc(C(=O)Nc5ccc(CNCCO)c(C(F)(F)F)n5)c4Cl)cccc32)c(Cl)cc1CNCCO`: 16.7 nM.
In the case of `Cc1c(-c2nnc(Nc3ccc(CNCCO)cc3)o2)cccc1-c1cccc(-c2nnc(Nc3cccc(CNCCO)c3)o2)c1C`, the IC50 in data set [1] was determined as 714 nM.
The same measure, in the same setting: the same measure for `CC(=O)NCCNCc1ccc(Nc2nnc(-c3cccc(-c4cccc(-c5nnc(Nc6cccc(CNCCNC(C)=O)c6)o5)c4C)c3C)o2)cc1`: 893 nM.

Source of the values: ChEMBL document CHEMBL5376007, “Discovery of Novel PD-L1 Inhibitors That Induce the Dimerization, Internalization, and Degradation of PD-L1 Based on the Fragment Coupling Strategy” (J Med Chem, 2023).
